The values below come from patent US20250361546A1, “SCREENING METHODS FOR RNA-CONTROLLING COMPOUNDS” (Veritas In Silico Inc., priority 2018, published 2025).

Each structure is given as a SMILES string.

Common to all, as to format: binding
For assay [1], the system named is A-4-G_Cy5/BHQ2, MGA-N_FAM/BHQ1, FMNA_Alexa532/BHQ1, TAR21-G3_Texas Red/BHQ2. The experiment in a line: FRET probe Tm measurement, summary over four probes (Example 5). The settings on record: both single probes and mixed probes; 100 μM compound. The procedure:
(§1) Four FRET probes with fluorescent modifications corresponding to four wavelengths detectable by a measuring device (CFX384 Touch manufactured by Bio-Rad) were prepared. • FRET probe with Cy5 at the 5′ end and BHQ2 modification at the 3′ end
The final levels were 50 nM RNA, 20 mM phosphate buffer (pH 6 5), 50 mM KCl, 1% DMSO, 0.1 μg/μl Bovine Serum Albumin (Takara Bio) or 0.05%-0.1% Tween-20, or 0.05%-0.1% Triton X-100 per probe. In addition, 10 μl solutions were mixed to make 100 μM compound if small compounds were included and incubated at room temperature for 10 minutes. […]

The subject of assay [2] is FMNA_Alexa532/BHQ1. The experiment in a line: FRET probe Tm measurement, single probe and 4-probe mixture (Example 5). Conditions: 100 μM compound. The procedure: • FRET probe with HEX-equivalent Alexa 532 at the 5′ end and BHQ1 modification at the 3′ end
(§2) The final levels were 50 nM RNA, 20 mM phosphate buffer (pH 6 5), 50 mM KCl, 1% DMSO, 0.1 μg/μl Bovine Serum Albumin (Takara Bio) or 0.05%-0.1% Tween-20, or 0.05%-0.1% Triton X-100 per probe. In addition, 10 μl solutions were mixed to make 100 μM compound if small compounds were included and incubated at room temperature for 10 minutes.
(§3) The solutions were dispensed into a 384 well plate, and the plate was kept in a qPCR machine (manufactured by CFX 384 Touch (Bio-Rad Co., Ltd.) for 15 seconds after the temperature was raised to 95° C., which was rapidly cooled to 4° C. and kept for 2 minutes, and then kept at 25° C. for 5 minutes. Then, it was raised to over 95° C. about 40 minutes, and the fluorescence output was measured every 1° C. in 10 seconds. For numerical differentiation of the fluorescence output, a total of seven points from the measured temperature T to plus or minus 3° C. were approximated to a straight line by the least squares method, and the slope was defined as the slope (D1) at the point of the measured temperature T. Similarly, the value of D1 was again subjected to numerical differentiation in the same manner, and the slope (D2) at the point of the measured temperature T was obtained. Here, in parts where the D1 value was 10 or more, the measured temperature T_D1MAX was obtained with D1 at maximum. A total of seven points from this measured temperature T_D1MAX to plus and minus 3° C. were used to calculate the value of T_INF at Y=0 by setting X as T and Y as D2 when the seven points were actually approximated to the line by least squares, and this was set as the Tm value. In addition, the difference (Tm−Tm_NO) in the Tm value (Tm_NO) between wells containing the compound and wells without it was acquired as ΔTm.
(§4) This work was carried out for single-probe wells and four-probe wells, respectively, to obtain the Tm and ΔTm values shown in Table 6 below.

For assay [3], the system named is MGA-N_FAM/BHQ1. The description is as above. Conditions: 100 μM compound. The procedure:
• FRET probe with FAM at the 5′ end and BHQ1 modification at the 3′ end
as §2, §3, §4

For assay [4], the system named is A-4-G_Cy5/BHQ2. Described as above. Conditions: 100 μM compound. The procedure: as §1, §2, §3, §4
Assay [5] has as its system TAR21-G3_Texas Red/BHQ2. The assay is described as above. The settings on record: 100 μM compound. The procedure:
• FRET probe with Texas Red at the 5′ end and BHQ2 modification at the 3′ end
as §2, §3, §4

In assay [6] the test system is Survivin-native+ type probe (Cy5/BHQ2). Briefly: FRET probe Tm measurement with single compounds and compound mixture (Example 6). Conditions: for ΔTm: 100 μM compound per compound, 50 nM RNA. The procedure:
(§5) A-4-G_Cy5/BHQ2 probe and the Survivin-native+type probe modified with Cy5 at the 5′ end and BHQ2 at the 3′ end were prepared as shown in Examples 2 and 5.
(§6) The final levels were 50 nM RNA, 20 mM phosphate buffer (pH 6 5), 50 mM KCl, 1% DMSO, 0.1 μg/μl Bovine Serum Albumin (Takara Bio), or 0.05%-0.1% Tween-20, or 0.05%-0.1% Triton X-100. Further, if a low-molecular weight compound was included, 10 μl solutions were mixed to give 100 μM compound per compound and incubated at room temperature for 10 minutes.
as §3

Assay [7] has as its system A-4-G_Cy5/BHQ2 probe. Described as above. Conditions: for ΔTm: 100 μM compound per compound, 50 nM RNA. The procedure:
as §5, §6, §3

Setting [8] is: 4-probe mixture, HEX detection, 50 nM RNA per probe.
The mark [9] stands for this setting: 4-probe mixture, FAM detection, 50 nM RNA per probe.
[10] abbreviates: 4-probe mixture, Cy5 detection, 50 nM RNA per probe.
Setting [11] is: 4-probe mixture, Texas Red detection, 50 nM RNA per probe.

On to `O=C(O)c1cn(C2CC2)c2cc(N3CCNCC3)c(F)cc2c1=O` [CPFX, ciprofloxacin], for which the “Tm increase (in words)” value in assay [1] was “Tm increase was obtained only at wavelengths corresponding to A-4-G_Cy5/BHQ2”. Further, the “Tm (° C.) with compound” value in assay [2] (setting [8]) stood at 78.07 °C; in assay [2] (Single probe, 50 nM RNA), 78.03 °C; in assay [3] (setting [9]), 74.22 °C; in assay [3] (Single probe, 50 nM RNA), 74.03 °C; in assay [4] (setting [10]), 68.96 °C; in assay [4] (Single probe, 50 nM RNA), 68.78 °C. Also, the “Tm (° C.) with compound” value in assay [5] (setting [11]) is 85.75 °C; in assay [5] (Single probe, 50 nM RNA), 85.80 °C. Further, the “ΔTm (° C.)” value in assay [2] (setting [8]) is −0.02 °C; in assay [2] (Single probe, 50 nM RNA), 0.09 °C; in assay [3] (setting [9]), 0.11 °C; in assay [3] (Single probe, 50 nM RNA), 0.33 °C; in assay [4] (setting [10]), 1.46 °C; in assay [4] (Single probe, 50 nM RNA) it was 1.41 °C. Moreover, the “ΔTm (° C.)” value was −0.02 °C in assay [5] (setting [11]) and 0.07 °C in assay [5] (Single probe, 50 nM RNA).

Take `CC1CCc2c(N3CCC(O)CC3)c(F)cc3c(=O)c(C(=O)O)cn1c23` (centres unmarked) [NDFX, nadifloxacin]: the “change of Tm value (in words)” value in assay [6] and in assay [7] was “does not cause changes in the Tm value” each time. The ΔTm is 0.01 in assay [6] (Table 7, SV-NL); 0.0 °C in assay [6] (rounded); 0.15 in assay [7] (Table 7, A-4-G); 0.2 °C in assay [7] (rounded).
